pIC50: −log10 of the molar value.
What was measured:
[1] = molecular target: T1, h17β-HSD2 (Homo sapiens, UniProt P37059); assay: Inhibition of h17β-HSD2 in cell-free assay; assay type: biochemical; parameters: from tissue; host or cells: human placenta, microsomal fraction; details: for s.f. (selectivity factor) = IC50(17β-HSD1)/IC50(17β-HSD2): human enzymes, cell-free
T1 sequence (P37059 1-387): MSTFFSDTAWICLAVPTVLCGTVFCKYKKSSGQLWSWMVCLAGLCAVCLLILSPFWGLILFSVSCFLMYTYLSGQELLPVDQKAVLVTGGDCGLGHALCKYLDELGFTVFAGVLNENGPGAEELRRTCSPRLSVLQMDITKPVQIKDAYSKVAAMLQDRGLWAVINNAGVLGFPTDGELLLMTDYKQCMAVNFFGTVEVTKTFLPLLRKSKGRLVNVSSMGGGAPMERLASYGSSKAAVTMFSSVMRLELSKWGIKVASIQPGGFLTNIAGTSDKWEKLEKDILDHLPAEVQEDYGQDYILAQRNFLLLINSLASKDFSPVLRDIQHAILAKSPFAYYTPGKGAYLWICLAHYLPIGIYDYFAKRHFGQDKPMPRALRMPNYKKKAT

Cc1cccc(N(C)C(=O)c2ccc(-c3cccc(C)c3F)cc2)c1 [Compound 21a, 2'-Fluoro-N,3'-dimethyl-N-(m-tolyl)-[1,1'-biphenyl]-4-carboxamide]
melting point: 73 to 76 °C
pIC50 [1]: 6.48
s.f. (selectivity factor) = IC50(17β-HSD1)/IC50(17β-HSD2) [1]: 11

Cc1cccc(-c2ccc(C(=O)N(C)Cc3cccc(O)c3)cc2)c1F [Compound 25, 2'-Fluoro-N-(3-hydroxybenzyl)-N,3'-dimethyl-[1,1'-biphenyl]-4-carboxamide]
melting point: 123 to 126 °C
pIC50 [1]: 6.59
s.f. (selectivity factor) = IC50(17β-HSD1)/IC50(17β-HSD2) [1]: 118

COc1cccc(N(C)C(=O)c2ccc(-c3ccc(C)c(C)c3)cc2)c1 [Compound 17a, N-(3-methoxyphenyl)-N,3',4'-trimethyl-[1,1'-biphenyl]-4-carboxamide]
pIC50 [1]: 6.52
s.f. (selectivity factor) = IC50(17β-HSD1)/IC50(17β-HSD2) [1]: 44

COc1cccc(N(C)C(=O)c2ccc(-c3cccc(C)c3)cc2)c1 [Compound 6a, N-(3-methoxyphenyl)-N,3'-dimethyl-[1,1'-biphenyl]-4-carboxamide]
pIC50 [1]: 6.59
s.f. (selectivity factor) = IC50(17β-HSD1)/IC50(17β-HSD2) [1]: 25
